Article PMC9200803, “Design, synthesis, and biological evaluation of tetrahydroquinolinones and tetrahydroquinolines with anticancer activity” (Scientific Reports, 2022)

Legend:
HEK293 cells = test: MTT cell viability assay, HEK293; type: cell-based, human
MCF-7 cells = test: MTT cell viability assay, MCF-7; type: cell-based, human; conditions: IC50 ± SD
Method: (§1) To evaluate the effects of the newly synthesized tetrahydroquinolin-2(1H)-one derivatives on cell viability, we treated human colon cancer cells HCT-116, human breast cancer cells MCF-7, and human non-small cell lung cancer cells A-549 with different concentrations of the compounds for 72 h. After incubation, the MTT (3-(4,5-dimethylthiazol-2-yl)-2,5-diphenyltetrazolium bromide) assay was performed and the cytotoxic potency of compounds (expressed in IC50) on the cells was determined in comparison to control cells treated with 1% of dimethyl sulfoxide (DMSO) (Table 1). […] We also compared the activity of 20d and 19b to the reference control drug Cisplatin, which is widely used in chemotherapy.
(§2) A-549 (CCL-185) and MCF-7 ([…]) cells were cultured in RPMI-1640 medium, while HCT-116 (CVCL-427), (hMLH1)-deficient (MMR^–) and hMLH1-proficient (MMR^+) RKO cells were cultured in McCoy’s 5A medium. The culture media were supplemented with 10% fetal bovine serum, 2 mM L-glutamine, and antibiotics (penicillin 62.6 µg/ml and streptomycin 40 µg/ml). Cultivation of cell lines was carried out at 37 °C under a humidified atmosphere containing 5% CO2, and the cultures were routinely screened for Mycoplasma contamination. A-549, MCF-7, and HCT-116 cells were obtained from American Type Culture Collection (ATCC), while RKO colon carcinoma cells were a kind gift of Dr Timothy Kinsella (Brown University, USA).
(§3) The viability of cells was determined in response to the newly synthesized compounds using the MTT (Sigma-Aldrich) assay. Briefly, cells were seeded into 96-well plates and allowed to attach overnight. Then, cells were exposed to various concentrations of compounds for 24, 48 or 72 h. Negative controls were treated with the same amount of DMSO solvent (1%). After treatment, the MTT solution (0.4 mg/ml) was added to each well and allowed to react with cells for 2–3 h at 37 °C. Next, the medium was removed, the formazan product formed was dissolved in 100 μl of DMSO, and the absorbance was determined at 540 nm using an ASYS UVM340 microplate reader (Biochrom Ltd.). The IC50 value, which represents the concentration of the compound required to inhibit cell growth by 50% compared to vehicle, was calculated using GraphPad Prism 8 software based on the curves plotting survival against dose averaged from at least three independent experiments.

HCT-116 cells = test: MTT cell viability assay, HCT-116; type: cell-based, human; conditions: 72 h; for IC50: MTT, IC50 ± SD; for cytotoxicity on tested cell lines: HCT-116, MCF-7, A-549, concentrations up to 50 µM
Method: as §1, §2, §3

A-549 cells = test: MTT cell viability assay, A-549; type: cell-based, human; conditions: MTT, 72 h, IC50 ± SD
Method: as §1, §2, §3

[1] = Homo sapiens, HEK293, IC50 ± SD

IC50 (HCT-116 cells) [µM]	IC50 (MCF-7 cells; Homo sapiens, MCF7, 72 h) [µM]	IC50 (HCT-116 cells; Homo sapiens, HCT-116, 72 h) [µM]	IC50 (A-549 cells; Homo sapiens, A549) [µM]	melting point [°C]	SMILES	IC50 (HEK293 cells; IC50 ± SD) [µM]	IC50 (MCF-7 cells; 72 h) [µM]	IC50 (A-549 cells) [µM]	IC50 (HEK293 cells; [1]) [µM]	cytotoxicity on tested cell lines (HCT-116 cells)
	> 50	> 50	> 50		O=c1cc(-c2ccccc2)c2c([nH]1)CCCC2 [Compound 9, 4-phenyl-5,6,7,8-tetrahydro-1H-quinolin-2-one]				> 50	no cytotoxicity
	> 50	> 50	> 50	88 to 90	OC1CCCc2c(-c3ccccc3)cc(Cl)nc21 (stereo not shown) [Compound 16, 2-chloro-4-phenyl-5,6,7,8-tetrahydroquinolin-8-ol]				> 50	no cytotoxicity
	> 50	> 50	> 50	61 to 63	COc1cc(-c2ccccc2)c2c(n1)C(O)CCC2 (stereo not shown) [Compound 17, 2-methoxy-4-phenyl-5,6,7,8-tetrahydroquinolin-8-ol]				> 50	no cytotoxicity
	> 50	39.8 ± 2.62	27.2 ± 1.53	148 to 150	O=C(Nc1ccccc1)OC1CCCc2c(-c3ccccc3)cc(Cl)nc21 (stereo not shown) [Compound 18a, (2-chloro-4-phenyl-5,6,7,8-tetrahydroquinolin-8-yl) N-phenylcarbamate]				> 50	
	> 50	> 50	> 50		O=C(Nc1ccc([N+](=O)[O-])cc1)OC1CCCc2c(-c3ccccc3)cc(Cl)nc21 (stereo not shown) [Compound 18b, (2-chloro-4-phenyl-5,6,7,8-tetrahydroquinolin-8-yl) N-(4-nitrophenyl)carbamate]				> 50	no cytotoxicity
	> 50	18.9 ± 1.26	23.8 ± 4.02	113 to 115	O=C(Nc1ccc(F)cc1)OC1CCCc2c(-c3ccccc3)cc(Cl)nc21 (stereo not shown) [Compound 18c, (2-chloro-4-phenyl-5,6,7,8-tetrahydroquinolin-8-yl) N-(4-fluorophenyl)carbamate]				> 50	
	> 50	> 50	> 50		O=C(Nc1cccc(F)c1)OC1CCCc2c(-c3ccccc3)cc(Cl)nc21 (stereo not shown) [Compound 18d, (2-chloro-4-phenyl-5,6,7,8-tetrahydroquinolin-8-yl) N-(3-fluorophenyl)carbamate]				> 50	no cytotoxicity
	> 50	> 50	45.3 ± 4.2		O=C(Nc1ccc(Cl)cc1)OC1CCCc2c(-c3ccccc3)cc(Cl)nc21 (stereo not shown) [Compound 18e, (2-chloro-4-phenyl-5,6,7,8-tetrahydroquinolin-8-yl) N-(4-chlorophenyl)carbamate]				> 50	
	> 50	26.2 ± 1.69	> 50		COc1cc(-c2ccccc2)c2c(n1)C(OC(=O)Nc1ccccc1)CCC2 (stereo not shown) [Compound 19a, (2-methoxy-4-phenyl-5,6,7,8-tetrahydroquinolin-8-yl) N-phenylcarbamate]				> 50	
13 ± 2.68	> 50	~13	28.4 ± 0.56	125 to 127	COc1cc(-c2ccccc2)c2c(n1)C(OC(=O)Nc1ccc(F)cc1)CCC2 (stereo not shown) [Compound 19c, (2-methoxy-4-phenyl-5,6,7,8-tetrahydroquinolin-8-yl) N-(4-fluorophenyl)carbamate]				> 50	
	> 50	31.6 ± 0.58	41.1 ± 0.93		COc1cc(-c2ccccc2)c2c(n1)C(OC(=O)Nc1cccc(F)c1)CCC2 (stereo not shown) [Compound 19d, (2-methoxy-4-phenyl-5,6,7,8-tetrahydroquinolin-8-yl) N-(3-fluorophenyl)carbamate]				> 50	
13.9 ± 1.3	> 50	~13	> 50	144 to 146	COc1cc(-c2ccccc2)c2c(n1)C(OC(=O)Nc1ccc(Cl)cc1)CCC2 (stereo not shown) [Compound 19e, (2-methoxy-4-phenyl-5,6,7,8-tetrahydroquinolin-8-yl) N-(4-chlorophenyl)carbamate]				> 50	
13.1 ± 1.55	> 50	~13	21.8 ± 0.22	144 to 146	O=C(Nc1ccccc1)OC1CCCc2c(-c3ccccc3)cc(=O)[nH]c21 (stereo not shown) [Compound 20a, (2-oxo-4-phenyl-5,6,7,8-tetrahydroquinolin-8-yl) N-phenylcarbamate]				> 50	
	> 50	> 50	> 50	225 to 227	O=C(Nc1ccc([N+](=O)[O-])cc1)OC1CCCc2c(-c3ccccc3)cc(=O)[nH]c21 (stereo not shown) [Compound 20b, (2-oxo-4-phenyl-5,6,7,8-tetrahydroquinolin-8-yl) N-(4-nitrophenyl)carbamate]				> 50	
	> 50	18.4 ± 2.04	23.8 ± 4.02		O=C(Nc1ccc(F)cc1)OC1CCCc2c(-c3ccccc3)cc(=O)[nH]c21 (stereo not shown) [Compound 20c, (2-oxo-4-phenyl-5,6,7,8-tetrahydroquinolin-8-yl) N-(4-fluorophenyl)carbamate]				> 50	
	> 50	> 50	> 50		O=C(Nc1ccc(Cl)cc1)OC1CCCc2c(-c3ccccc3)cc(=O)[nH]c21 (stereo not shown) [Compound 20e, (2-oxo-4-phenyl-5,6,7,8-tetrahydroquinolin-8-yl) N-(4-chlorophenyl)carbamate]				> 50	no cytotoxicity
	> 50	> 50	> 50	135 to 137	O=C1CCCc2c(-c3ccccc3)cc(Cl)nc21 [Compound 21, 2-chloro-4-phenyl-6,7-dihydro-5H-quinolin-8-one]				> 50	no cytotoxicity
	> 50	> 50	> 50	127 to 129	COc1cc(-c2ccccc2)c2c(n1)C(=O)CCC2 [Compound 22, 2-methoxy-4-phenyl-6,7-dihydro-5H-quinolin-8-one]				> 50	no cytotoxicity
	> 50	> 50	> 50	182 to 184	O=C1CCCc2c(-c3ccccc3)cc(=O)[nH]c21 [Compound 23, 4-phenyl-1,5,6,7-tetrahydroquinoline-2,8-dione]				> 50	no cytotoxicity
	> 50	> 50	> 50	104 to 106	O=c1cc(-c2ccccc2)c2c([nH]1)C(O)CCC2 (stereo not shown) [Compound 24, 8-hydroxy-4-phenyl-5,6,7,8-tetrahydro-1H-quinolin-2-one]				> 50	no cytotoxicity

SMILES	IC50 (HCT-116 cells) [µM]	IC50 (MCF-7 cells; Homo sapiens, MCF7, 72 h) [µM]	IC50 (HCT-116 cells; Homo sapiens, HCT-116, 72 h) [µM]	IC50 (A-549 cells; Homo sapiens, A549) [µM]	melting point [°C]	IC50 (HEK293 cells; IC50 ± SD) [µM]	IC50 (MCF-7 cells; 72 h) [µM]	IC50 (A-549 cells) [µM]	IC50 (HEK293 cells; [1]) [µM]	cytotoxicity on tested cell lines (HCT-116 cells)
N.N.[Cl][Pt][Cl] [Cisplatin, reference compound]	24.9 ± 1.14					28.4 ± 1.97	33.8 ± 1.56	29.01 ± 0.12		
